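Results reflect a 48-hour exposure of cells in 96-well plates to compound at five concentrations. Here, GI50 denotes the concentration required for 50% inhibition of growth. TGI: concentration producing complete growth inhibition.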 Bounds are passed on as bounds.

The first test deals with A549 NSCLC. The experiment in a line: NCI tumour cell line growth inhibition, 48 h.
In the case of `COc1cc(/C=C\[N+](=O)[O-])ccc1O`, the GI50 is 3.34 µM and the TGI turned out to be 12.7 µM.

For the compound `O=C(Nc1cccc(-n2ccc3c(NC(=O)c4ccccc4)nccc32)c1)c1cccc(C(F)(F)F)c1`, the GI50 is 0.043 µM and the TGI was 2.61 µM.

In the case of `C=CC(=O)N[C@H]1C=C(C)c2c(-c3cnc4ccccc4c3)c3c(N)ncnc3n2C1`, the GI50 was 11.6 µM and the TGI was > 67 µM.

On to `C=C1C(O)C2CCC(C)(C)C(=O)C2=C(CC(C)C)C12CC2` (centres undefined), for which the GI50 is 93.3 µM and the TGI is > 100 µM.

Turning to `CNC(=O)c1ccccc1CC1(O)c2ccccc2Oc2ccccc21`, the GI50 was 16.5 µM and the TGI is > 100 µM.

Turning to `CCOc1ccc(S(=O)(=O)/N=C2\C=C(SCC(=O)O)C(=O)c3ccccc32)cc1`, the GI50 was 12.6 µM and the TGI worked out at 34.9 µM.

The next test has as its system BT-549 breast. The experiment in a line: NCI tumour cell line growth inhibition, 48 h.
As to `COc1cc(/C=C\[N+](=O)[O-])ccc1O`, the GI50 is 2.39 µM and the TGI amounted to 6.51 µM.

As to `O=C(Nc1cccc(-n2ccc3c(NC(=O)c4ccccc4)nccc32)c1)c1cccc(C(F)(F)F)c1`, the GI50 was 0.127 µM and the TGI is 1.3 µM.

As for `C=CC(=O)N[C@H]1C=C(C)c2c(-c3cnc4ccccc4c3)c3c(N)ncnc3n2C1`, the GI50 was 12.5 µM and the TGI is 41.9 µM.

As to `C=C1C(O)C2CCC(C)(C)C(=O)C2=C(CC(C)C)C12CC2` (centres undefined), the GI50 was > 100 µM and the TGI was > 100 µM.

As for `CNC(=O)c1ccccc1CC1(O)c2ccccc2Oc2ccccc21`, the GI50 is 25.9 µM and the TGI was > 100 µM.

`CCOc1ccc(S(=O)(=O)/N=C2\C=C(SCC(=O)O)C(=O)c3ccccc32)cc1`: the GI50 was 4.66 µM and the TGI came out at 15 µM.

The subject of a further test is KM12 colon. The test is described as follows: NCI tumour cell line growth inhibition, 48 h.
As to `COc1cc(/C=C\[N+](=O)[O-])ccc1O`, the GI50 was 4.93 µM and the TGI came out at 17.3 µM.

Consider `O=C(Nc1cccc(-n2ccc3c(NC(=O)c4ccccc4)nccc32)c1)c1cccc(C(F)(F)F)c1`, for which the GI50 was 0.0341 µM and the TGI is 1.4 µM.

`C=CC(=O)N[C@H]1C=C(C)c2c(-c3cnc4ccccc4c3)c3c(N)ncnc3n2C1`: the GI50 was 19.5 µM and the TGI was 45.6 µM.

With `C=C1C(O)C2CCC(C)(C)C(=O)C2=C(CC(C)C)C12CC2` (centres undefined), the GI50 is 47.1 µM and the TGI was > 100 µM.

In the case of `CNC(=O)c1ccccc1CC1(O)c2ccccc2Oc2ccccc21`, the GI50 is 8.15 µM and the TGI was 44.6 µM.

Regarding `CCOc1ccc(S(=O)(=O)/N=C2\C=C(SCC(=O)O)C(=O)c3ccccc32)cc1`, the GI50 was 2.8 µM and the TGI is 10.3 µM.

A further test relates to MCF7 breast. The test is described as follows: NCI tumour cell line growth inhibition, 48 h.
For the compound `COc1cc(/C=C\[N+](=O)[O-])ccc1O`, the GI50 was 1.63 µM and the TGI was 4.28 µM.

Consider `O=C(Nc1cccc(-n2ccc3c(NC(=O)c4ccccc4)nccc32)c1)c1cccc(C(F)(F)F)c1`, for which the GI50 is 0.0362 µM.

As for `C=CC(=O)N[C@H]1C=C(C)c2c(-c3cnc4ccccc4c3)c3c(N)ncnc3n2C1`, the GI50 was 21.1 µM and the TGI is > 100 µM.

In the case of `C=C1C(O)C2CCC(C)(C)C(=O)C2=C(CC(C)C)C12CC2` (centres undefined), the GI50 is 35 µM and the TGI is > 100 µM.

For `CNC(=O)c1ccccc1CC1(O)c2ccccc2Oc2ccccc21`, the GI50 is 5.08 µM and the TGI came to 44.5 µM.

`CCOc1ccc(S(=O)(=O)/N=C2\C=C(SCC(=O)O)C(=O)c3ccccc32)cc1`: the GI50 was 1.64 µM and the TGI is 3.68 µM.

For the next test, the system named is MOLT-4 leukemia. The test is described as follows: NCI tumour cell line growth inhibition, 48 h.
For the compound `COc1cc(/C=C\[N+](=O)[O-])ccc1O`, the GI50 is 2.76 µM and the TGI is 7.23 µM.

On to `O=C(Nc1cccc(-n2ccc3c(NC(=O)c4ccccc4)nccc32)c1)c1cccc(C(F)(F)F)c1`, for which the GI50 was 0.168 µM and the TGI was > 100 µM.

For the compound `C=CC(=O)N[C@H]1C=C(C)c2c(-c3cnc4ccccc4c3)c3c(N)ncnc3n2C1`, the GI50 is 24.5 µM and the TGI was > 100 µM.

Regarding `C=C1C(O)C2CCC(C)(C)C(=O)C2=C(CC(C)C)C12CC2` (centres undefined), the GI50 was 33.1 µM and the TGI is > 100 µM.

For the compound `CNC(=O)c1ccccc1CC1(O)c2ccccc2Oc2ccccc21`, the GI50 was 36.4 µM and the TGI is > 100 µM.

On to `CCOc1ccc(S(=O)(=O)/N=C2\C=C(SCC(=O)O)C(=O)c3ccccc32)cc1`, for which the GI50 was 2.38 µM and the TGI was found to be 6.06 µM.

The test system of a further test is SF-268 CNS. The test is described as follows: NCI tumour cell line growth inhibition, 48 h.
For `COc1cc(/C=C\[N+](=O)[O-])ccc1O`, the GI50 was 3.44 µM and the TGI amounted to 12.8 µM.

On to `O=C(Nc1cccc(-n2ccc3c(NC(=O)c4ccccc4)nccc32)c1)c1cccc(C(F)(F)F)c1`, for which the GI50 was 0.0709 µM and the TGI stood at 12.4 µM.

Regarding `C=CC(=O)N[C@H]1C=C(C)c2c(-c3cnc4ccccc4c3)c3c(N)ncnc3n2C1`, the GI50 was 5.81 µM and the TGI was 72.9 µM.

As for `C=C1C(O)C2CCC(C)(C)C(=O)C2=C(CC(C)C)C12CC2` (centres undefined), the GI50 was 50.5 µM and the TGI is > 100 µM.

`CNC(=O)c1ccccc1CC1(O)c2ccccc2Oc2ccccc21`: the GI50 was 24.2 µM and the TGI was determined as 85.9 µM.

As to `CCOc1ccc(S(=O)(=O)/N=C2\C=C(SCC(=O)O)C(=O)c3ccccc32)cc1`, the GI50 was 2.95 µM and the TGI is 12.2 µM.

Another test relates to SK-MEL-28 melanoma. The test is described as follows: NCI tumour cell line growth inhibition, 48 h.
`COc1cc(/C=C\[N+](=O)[O-])ccc1O`: the GI50 is 1.95 µM and the TGI is 4.59 µM.

`O=C(Nc1cccc(-n2ccc3c(NC(=O)c4ccccc4)nccc32)c1)c1cccc(C(F)(F)F)c1`: the GI50 was 0.0558 µM and the TGI is 4.04 µM.

In the case of `C=CC(=O)N[C@H]1C=C(C)c2c(-c3cnc4ccccc4c3)c3c(N)ncnc3n2C1`, the GI50 was 19.3 µM and the TGI worked out at 68.6 µM.

As to `C=C1C(O)C2CCC(C)(C)C(=O)C2=C(CC(C)C)C12CC2` (centres undefined), the GI50 is 43.6 µM and the TGI is > 100 µM.

Turning to `CNC(=O)c1ccccc1CC1(O)c2ccccc2Oc2ccccc21`, the GI50 is 23.2 µM and the TGI is > 100 µM.

In the case of `CCOc1ccc(S(=O)(=O)/N=C2\C=C(SCC(=O)O)C(=O)c3ccccc32)cc1`, the GI50 is 4.74 µM and the TGI amounted to 16.3 µM.

The subject of a further test is SK-OV-3 ovarian. The test is described as follows: NCI tumour cell line growth inhibition, 48 h.
On to `COc1cc(/C=C\[N+](=O)[O-])ccc1O`, for which the GI50 is 12.7 µM and the TGI worked out at 25.9 µM.

As to `O=C(Nc1cccc(-n2ccc3c(NC(=O)c4ccccc4)nccc32)c1)c1cccc(C(F)(F)F)c1`, the GI50 is 0.0331 µM and the TGI worked out at 15.1 µM.

In the case of `C=CC(=O)N[C@H]1C=C(C)c2c(-c3cnc4ccccc4c3)c3c(N)ncnc3n2C1`, the GI50 was 0.171 µM and the TGI was 4.2 µM.

For the compound `C=C1C(O)C2CCC(C)(C)C(=O)C2=C(CC(C)C)C12CC2` (centres undefined), the GI50 was > 100 µM and the TGI is > 100 µM.

Regarding `CNC(=O)c1ccccc1CC1(O)c2ccccc2Oc2ccccc21`, the GI50 was 24 µM and the TGI was 87.3 µM.

As to `CCOc1ccc(S(=O)(=O)/N=C2\C=C(SCC(=O)O)C(=O)c3ccccc32)cc1`, the GI50 is 15.2 µM and the TGI was 29.7 µM.

The next test relates to SNB-19 CNS. The test is described as follows: NCI tumour cell line growth inhibition, 48 h.
As for `COc1cc(/C=C\[N+](=O)[O-])ccc1O`, the GI50 is 4.92 µM and the TGI worked out at 18 µM.

Consider `O=C(Nc1cccc(-n2ccc3c(NC(=O)c4ccccc4)nccc32)c1)c1cccc(C(F)(F)F)c1`, for which the GI50 was 0.0453 µM and the TGI is > 100 µM.

Turning to `C=CC(=O)N[C@H]1C=C(C)c2c(-c3cnc4ccccc4c3)c3c(N)ncnc3n2C1`, the GI50 is 32.4 µM and the TGI is > 100 µM.

Consider `C=C1C(O)C2CCC(C)(C)C(=O)C2=C(CC(C)C)C12CC2` (centres undefined), for which the GI50 is 59.5 µM and the TGI was > 100 µM.

As for `CNC(=O)c1ccccc1CC1(O)c2ccccc2Oc2ccccc21`, the GI50 is 24.6 µM and the TGI was > 100 µM.

Consider `CCOc1ccc(S(=O)(=O)/N=C2\C=C(SCC(=O)O)C(=O)c3ccccc32)cc1`, for which the GI50 was 3.42 µM and the TGI is 12.1 µM.

The subject of the next test is TK-10 renal. The experiment in a line: NCI tumour cell line growth inhibition, 48 h.
`COc1cc(/C=C\[N+](=O)[O-])ccc1O`: the GI50 is 1.72 µM and the TGI amounted to 3.41 µM.

With `O=C(Nc1cccc(-n2ccc3c(NC(=O)c4ccccc4)nccc32)c1)c1cccc(C(F)(F)F)c1`, the GI50 is 0.103 µM and the TGI worked out at 19.4 µM.

Regarding `C=CC(=O)N[C@H]1C=C(C)c2c(-c3cnc4ccccc4c3)c3c(N)ncnc3n2C1`, the GI50 was 0.0478 µM and the TGI stood at 7.88 µM.

Regarding `C=C1C(O)C2CCC(C)(C)C(=O)C2=C(CC(C)C)C12CC2` (centres undefined), the GI50 is 67.9 µM and the TGI was > 100 µM.

For `CNC(=O)c1ccccc1CC1(O)c2ccccc2Oc2ccccc21`, the GI50 was 26.6 µM and the TGI amounted to 89.9 µM.

On to `CCOc1ccc(S(=O)(=O)/N=C2\C=C(SCC(=O)O)C(=O)c3ccccc32)cc1`, for which the GI50 is 26.5 µM and the TGI was 56.9 µM.

These data come from PubChem BioAssay (NCI).
